Assays:
[1] = test system: GCN2-mediated ISR; experiment: Immunoblot analysis of integrated stress response and apoptosis markers; assay type: cell-based, human
Method: (§1) The U937 GCN2−/− cell line is derived from a single clone of U937 parental cells stably infected with a lentiviral CRISPR vector targeting GCN2. […] Cells were incubated with DMSO or 200 nM Compound D and lysed at the indicated time points. Arrows pointing to bands in the blot on the right designate the cleaved forms of caspase-3. […] The U937 GCN2−/− cell line is derived from a single clone of U937 parental cells stably infected with a lentiviral CRISPR vector targeting GCN2. […] Cells were treated with DMSO or Compound D for 24 hours. On day 3 after Compound D treatment, cell proliferation was assessed by CTG. Result shown in all figure panels is representative of at least three biological replicates. Data in FIGS. 13C, 13D and 13E are shown as mean±SD, n=3 technical replicates.
To determine if the activation of the ISR by Compound D is solely mediated by GCN2, the effect of GCN2 ablation on Compound D response was evaluated.

[2] = test system: ATF4 target genes ATF3, CHOP and DDIT4; experiment: Quantitative RT-PCR of ATF4 target genes; assay type: cell-based, human
Method: as §1
Specifically, following incubation with DMSO or Compound D, cells were collected via centrifugation at 2000 rpm for 2 minutes. Cell pellets were then washed once in ice-cold PBS and snap-frozen in liquid nitrogen. […] The cDNA transcripts of GADPH, DDIT3 (CHOP), DDIT4 (REDD), and ATF3 were quantified by the ViiA™ 7 Real-Time PCR System using TaqMan Gene Expression Assay probes (Invitrogen). The cDNA level of various CRBN transcripts was quantified using RT^2 SYBR Green qPCR Mastermixes (Qiagen). […]

[3] = test system: U937 Cas9 cell lines and OCI-AML2 Cas9 cell lines; experiment: Cell proliferation assay (CTG, 5 days) in sgRNA knockout Cas9 lines; assay type: cell-based, human
Method: Then, a cell proliferation assay was performed. Compound D dissolved in DMSO was injected into 96-well cell culture plates using a HP D300 digital dispenser in triplicate Compound D concentrations. One week after infection to knock-out the indicated genes, each of U937 Cas9 cell lines and OCI-AML2 Cas9 cell lines were plated in triplicate with 5000 cells in 100 μL complete culture media per well in the 96-well plates. After 5 days, cell proliferation was assessed using CTG (CellTiter-Glo) according to the manufacturer's instructions to assess the effects of Compound D on proliferation of each cell line.

[4] = target: T1, cereblon to GSPT1 (Homo sapiens, UniProt P15170+Q96SW2, W386A/Y384A); experiment: Cereblon binding assay with cell extracts (anti-HA immunoprecipitation), GSPT1; details: FLAG-HA-YWAA mutant
T1 construct: expressed in transfected cells; host or cells: 293FT CRBN-/- cells (transient transfection; cell extracts, anti-HA immunoprecipitation)
T1 sequence (Q96SW2 whole entry Y384A/W386A): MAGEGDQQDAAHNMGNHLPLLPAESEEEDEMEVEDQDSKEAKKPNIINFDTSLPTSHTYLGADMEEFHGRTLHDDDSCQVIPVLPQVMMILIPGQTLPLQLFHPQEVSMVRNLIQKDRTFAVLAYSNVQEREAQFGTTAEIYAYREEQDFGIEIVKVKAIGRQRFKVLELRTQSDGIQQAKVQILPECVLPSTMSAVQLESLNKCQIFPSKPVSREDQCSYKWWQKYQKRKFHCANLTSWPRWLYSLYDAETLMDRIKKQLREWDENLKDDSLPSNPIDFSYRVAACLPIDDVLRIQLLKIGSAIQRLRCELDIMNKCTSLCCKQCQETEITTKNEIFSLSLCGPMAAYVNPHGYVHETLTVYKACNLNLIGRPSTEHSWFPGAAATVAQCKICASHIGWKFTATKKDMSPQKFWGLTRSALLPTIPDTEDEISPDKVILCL
T1 sequence (P15170 1-637 isoform P15170-3, stated change not applied): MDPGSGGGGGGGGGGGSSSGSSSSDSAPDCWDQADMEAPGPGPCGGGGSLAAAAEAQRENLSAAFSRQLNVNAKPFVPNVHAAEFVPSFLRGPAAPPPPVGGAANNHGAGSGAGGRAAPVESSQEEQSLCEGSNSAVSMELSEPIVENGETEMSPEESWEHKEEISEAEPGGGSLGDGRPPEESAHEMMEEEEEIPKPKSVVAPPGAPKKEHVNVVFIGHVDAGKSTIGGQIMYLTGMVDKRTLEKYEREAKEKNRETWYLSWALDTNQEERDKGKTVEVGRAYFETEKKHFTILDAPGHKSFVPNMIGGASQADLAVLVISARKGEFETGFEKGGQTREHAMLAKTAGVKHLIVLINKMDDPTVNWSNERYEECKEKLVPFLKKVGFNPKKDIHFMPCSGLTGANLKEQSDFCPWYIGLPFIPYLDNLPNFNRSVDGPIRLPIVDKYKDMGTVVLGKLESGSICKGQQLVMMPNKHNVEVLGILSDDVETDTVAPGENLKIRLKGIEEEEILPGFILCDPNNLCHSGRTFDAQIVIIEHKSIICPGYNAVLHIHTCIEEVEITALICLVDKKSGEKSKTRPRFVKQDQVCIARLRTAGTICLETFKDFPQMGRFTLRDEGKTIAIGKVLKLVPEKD
Description: (§2) FIG. 3A illustrates FLAG-HA tagged cereblon wild-type (FLAG-HA-CRBN) or Y384A/W386A mutant (FLAG-HA-YWAA) produced in 293FT CRBN−/− cells was used to capture V5 tagged GSPT1 (GSPT1-V5) and V5 tagged IKZF1 (IKZF1-V5) transiently expressed in 293FT CRBN−/− cells. […] FIG. 3B illustrates the surface representation of GSPT1 in complex with cereblon, DDB1 and Compound D, with DDB1 shown in purple, cereblon in blue, and GSPT1 in orange. The position of Compound D is shown with a white arrow. FIG. 3C illustrates the Fo-Fc omit electron density (green mesh) for Compound D (yellow sticks) contoured at 3.06. […] Hydrogen bond interactions between cereblon and the GPST1 β-hairpin are shown as yellow dashes. FIG. 3E illustrates details of the binding interface between cereblon and GSPT1. Compound D is represented as yellow sticks. Predicted polar interactions between Compound D and cereblon are shown as yellow dashes. FIG. 3F illustrates the immunoblot analysis of U937 parental cells or cells stably expressing HA-GSPT1-G575N. Cells were treated with DMSO or Compound D at the indicated concentrations. FIGS. 3G and 311 illustrate the immunoblot analysis (left panel) and cell proliferation (right panel) of MOLM-13 (FIG. 3G) and OCI-AML2 (FIG. 311) parental cells and cells stably expressing HA tagged GSPT1-G575N. Cells were treated with DMSO or Compound D at indicated concentrations.

[5] = target: T2, cereblon to GSPT1 (Homo sapiens, UniProt P15170+Q96SW2); experiment: as above; details: wild-type FLAG-HA-CRBN; compound added directly into the binding assay
T2 construct: expressed in transfected cells; host or cells: 293FT CRBN-/- cells (transient transfection; cell extracts, anti-HA immunoprecipitation)
T2 sequence (Q96SW2 whole entry): as the sequence (Q96SW2 whole entry Y384A/W386A) above, with A384Y, A386W counted along it
T2 sequence (P15170 1-637 isoform P15170-3): as the sequence (P15170 1-637 isoform P15170-3, stated change not applied) above
Description: as §2

[6] = target: T3, HA-tagged GSPT1 and endogenous cereblon (Homo sapiens, UniProt P15170+Q96SW2); experiment: Anti-HA immunoprecipitation of HA-tagged GSPT1 with endogenous cereblon in U937-Cas9 cells; assay type: cell-based; details: with MLN4924
T3 construct: expressed in transfected cells; host or cells: U937-Cas9 cells stably expressing HA-tagged GSPT1 (cereblon endogenous); cells treated with MLN4924 and Compound D, anti-HA immunoprecipitation
T3 sequence (P15170 1-637 isoform P15170-3): as the sequence (P15170 1-637 isoform P15170-3, stated change not applied) above
T3 sequence (Q96SW2 whole entry): as the sequence (Q96SW2 whole entry Y384A/W386A) above, with A384Y, A386W counted along it
T3 sequence (Q16531 whole entry partner): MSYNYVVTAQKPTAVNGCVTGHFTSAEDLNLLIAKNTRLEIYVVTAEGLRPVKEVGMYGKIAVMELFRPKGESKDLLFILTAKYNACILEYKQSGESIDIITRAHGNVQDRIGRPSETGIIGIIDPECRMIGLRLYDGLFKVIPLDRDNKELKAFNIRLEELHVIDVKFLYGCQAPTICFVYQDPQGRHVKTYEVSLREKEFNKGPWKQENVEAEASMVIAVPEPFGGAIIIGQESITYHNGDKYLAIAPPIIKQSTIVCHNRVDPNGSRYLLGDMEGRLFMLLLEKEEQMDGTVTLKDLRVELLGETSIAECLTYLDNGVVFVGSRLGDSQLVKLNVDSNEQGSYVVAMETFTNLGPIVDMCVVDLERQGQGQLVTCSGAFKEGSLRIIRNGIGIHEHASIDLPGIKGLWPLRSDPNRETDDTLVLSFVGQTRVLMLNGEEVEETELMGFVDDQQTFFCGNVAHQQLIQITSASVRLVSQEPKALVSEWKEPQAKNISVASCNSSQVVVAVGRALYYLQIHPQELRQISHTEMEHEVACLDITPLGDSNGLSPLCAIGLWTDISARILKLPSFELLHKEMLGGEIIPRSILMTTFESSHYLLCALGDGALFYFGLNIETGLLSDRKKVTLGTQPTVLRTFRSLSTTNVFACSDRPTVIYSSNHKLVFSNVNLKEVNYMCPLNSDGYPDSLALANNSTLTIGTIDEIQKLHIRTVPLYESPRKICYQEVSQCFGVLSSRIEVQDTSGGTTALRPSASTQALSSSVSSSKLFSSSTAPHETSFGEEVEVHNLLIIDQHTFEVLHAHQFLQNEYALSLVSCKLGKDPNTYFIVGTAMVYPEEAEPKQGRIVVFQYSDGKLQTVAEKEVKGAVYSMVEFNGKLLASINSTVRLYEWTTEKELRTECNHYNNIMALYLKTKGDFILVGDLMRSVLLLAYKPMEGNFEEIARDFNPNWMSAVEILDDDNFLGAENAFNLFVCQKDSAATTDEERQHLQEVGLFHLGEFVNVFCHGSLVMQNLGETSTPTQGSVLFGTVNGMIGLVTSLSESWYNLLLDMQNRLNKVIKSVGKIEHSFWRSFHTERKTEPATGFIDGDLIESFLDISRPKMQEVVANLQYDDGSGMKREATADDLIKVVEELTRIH

For `O=C1CCC(N2Cc3cc(CNC(=O)C(F)(F)c4ccc(Cl)cc4)ccc3C2=O)C(=O)N1` (stereo not shown) [Compound D, 2-(4-chlorophenyl)-N-((2-(2,6-dioxopiperidin-3-yl)-1-oxoisoindolin-5-yl)methyl)-2,2-difluoroacetamide], the “activation of the ISR (eIF2a phosphorylation, ATF4 and targets)” value ([1]; U937 24 hours, KG-1 200 nM) was “triggered the rapid phosphorylation of eIF2a, accumulation of ATF4 and its transcriptional targets DDIT4, CHOP and ATF3”, the “apoptosis (cleaved caspase-3)” value ([1]; U937, KG-1 200 nM) was “subsequent induction of apoptosis” and the “ISR activation and caspase-3 cleavage after GCN2 knockout” value ([1]; U937 GCN2-/-, 24 hours) was “inhibited the phosphorylation of eIF2a, induction of ATF4 and its target gene DDIT4, and the cleavage of caspase-3”. For the same compound, the “mRNA level of ATF4 target genes” value ([2]; U937 24 hours, KG-1 200 nM for 2, 4 or 6 hours) was “marked induction of ATF4 target genes ATF3, CHOP and DDIT4 at the mRNA level”, the “induction of ATF3 and CHOP after GCN2 loss” value ([2]; U937 GCN2-/-, 24 hours) was “largely, but not completely, blocked the induction of other ATF4 target genes ATF3 and CHOP” and the “anti-proliferative effects after depletion of TSC1 and TSC2” value ([3]; U937) was “diminished this effect”. For the same compound, the “anti-proliferative effects in control cells” value ([3]; parental, sgNT-1 and sgNC-8 controls) was “dose-dependent anti-proliferative effects”, the “binding of cereblon mutant Y384A and W386A to GSPT1” value [4] was “completely abolished the binding of cereblon” and the “binding of cereblon to GSPT1” value [5] was “promoted the binding of cereblon to GSPT1”. The “Compound D-induced interaction of HA-tagged GSPT1 with endogenous cereblon after TSC1 loss” value [6] was “significantly reduced the interaction between HA-tagged GSPT1 and endogenous cereblon induced by Compound D”.
